Test results published in patent US8247538B2, “Preparation method of radioisotope labeling compound using carbon nanotube” (Korea Atomic Energy Research Institute, priority 2006, dated 2012).

Experiment: In vivo dynamic kinetics, gamma camera imaging after intravenous injection
Set-up: species or system New Zealand White male rabbits
Details: rabbits, 100 μCi/0.1 ml into left ear vein
Procedure: The ^99mTc-2,6-diisopropylacetanilidoiminodiacetic acid prepared in Example 1 was assayed for in vivo dynamic kinetics as follows.
After 6-week-old New Zealand White male rabbits (2887.6±101.5 g, n=3) were anesthetized with ketamine and xylazine, the radioactive compound of Example 1 was injected at a dose of 100 μCi/0.1 ml into the left ear vein of each of the rabbits. All of the rabbits were placed in a pronating posture. Moving pictures were taken for 30 min of each of the rabbits using a gamma camera fitted with a low energy, multipurpose collimator while 16 still pictures were also taken at predetermined time intervals. The image analyzer was set to 140 KeV with a 20% energy window. Image data were analyzed under the dynamic procedure of a Microdelta system (Simens, USA). The static images were taken at 1.52, 3.45, 5.37, 7.30, 9.22, 11.15, 13.07, 15.00, 16.52, 18.45, 20.37, 22.30, 24.22, 26.15, 28.07 and 30 min after the injection, and the results are given in FIG. 3.

Q: Which results are given for “^99mTc-2,6-diisopropylacetanilidoiminodiacetic acid [Example 1]”?
A: in vivo distribution seen in gamma camera images (FIG. 3) (images 1.52-30 min after injection): detected prominently in the hepatobiliary system, with the highest concentration at the liver; contrast ratio between images taken of the liver and of other organs, compared with conventional contrast media for imaging the hepatobiliary system (imaging for 30 min): higher
